Reference: patent US8865182B2 (priority 2009, dated 2014)

system: HLA-A24 supertype (A*2301, A*2402, A*2902, A*3002); type: binding, human

Which “# Alleles Bound” value does the source give for WMACHSAAF [SEQ ID NO: 131] here?
The value was 2.

With “EWLKTRPIL (Influenza Virus) [SEQ ID NO: 75]” as the sequence, how does the “# Alleles Bound” value read?
Its value is 2.

How did the “# Alleles Bound” value turn out when “VFVIREPFI (Influenza Virus) [SEQ ID NO: 97]” was run?
The value was 2.

Which “# Alleles Bound” value does the source give for “MYQKCCTLF (Influenza Virus) [SEQ ID NO: 251]” here?
The value was 3.

For FYIQMCTEL [SEQ ID NO: 128], which “# Alleles Bound” value is on record?
The value was 2.

For “SWPDGANINF (Influenza Virus) [SEQ ID NO: 101]”, which “# Alleles Bound” value is on record?
Its value is 2.

“FFENKSETW (Influenza Virus) [SEQ ID NO: 193]” was tested. Which “# Alleles Bound” value did it give?
The value was 2.

“RYTKTTYWW (Influenza Virus) [SEQ ID NO: 246]” was tested. Which “# Alleles Bound” value did it give?
Its value is 2.

How did the “# Alleles Bound” value turn out when “KFAAICTHL (Influenza Virus) [SEQ ID NO: 189]” was run?
The value was 2.

For “SWPDGANIPF (Influenza Virus) [SEQ ID NO: 100]”, which “# Alleles Bound” value is on record?
The value was 2.

Which “# Alleles Bound” value does the source give for “FYRYGFVANF (Influenza Virus) [SEQ ID NO: 248]” here?
The value was 2.

“LYNKMEFEPF (Influenza Virus) [SEQ ID NO: 297]” was tested. Which “# Alleles Bound” value did it give?
The value was 2.

Which “# Alleles Bound” value does the source give for “MYQKCCNLF (Influenza Virus) [SEQ ID NO: 250]” here?
Its value is 2.

How did the “# Alleles Bound” value turn out when WMMAMKYPI [SEQ ID NO: 295] was run?
Its value is 2.

For “LYASPQLEGF (Influenza Virus) [SEQ ID NO: 194]”, which “# Alleles Bound” value is on record?
Its value is 2.

“HMMIWHSNL (Influenza Virus) [SEQ ID NO: 129]” was tested. Which “# Alleles Bound” value did it give?
The value was 3.

“HYPKVYKTYF (Influenza Virus) [SEQ ID NO: 296]” was tested. Which “# Alleles Bound” value did it give?
Its value is 2.

With “KFEEIRWLI (Influenza Virus) [SEQ ID NO: 158]” as the sequence, how does the “# Alleles Bound” value read?
Its value is 2.

With MFLAMITYI [SEQ ID NO: 245] as the sequence, how does the “# Alleles Bound” value read?
The value was 2.

For “WWTSNSIIVF (Influenza Virus) [SEQ ID NO: 99]”, which “# Alleles Bound” value is on record?
The value was 2.

For “IYRRFKYGL (Influenza Virus) [SEQ ID NO: 85]”, which “# Alleles Bound” value is on record?
The value was 2.

Which “# Alleles Bound” value does the source give for SYINRTGTF [SEQ ID NO: 247] here?
Its value is 3.

“CFMYSDFHF (Influenza Virus) [SEQ ID NO: 190]” was tested. Which “# Alleles Bound” value did it give?
The value was 3.

For SYLIRALTL [SEQ ID NO: 244], which “# Alleles Bound” value is on record?
Its value is 2.

With “EYIMKGVYI (Influenza Virus) [SEQ ID NO: 192]” as the sequence, how does the “# Alleles Bound” value read?
The value was 2.

system: HLA-A1 supertype (A*101, A*2601, A*2902, A*3002); type: binding, human

How did the “# Alleles Bound” value turn out when “RMFLAMITY (Influenza Virus) [SEQ ID NO: 208]” was run?
Its value is 2.

With TFEFTSFFY [SEQ ID NO: 212] as the sequence, how does the “# Alleles Bound” value read?
The value was 3.

Which “# Alleles Bound” value does the source give for “NMDRAVKLY (Influenza Virus) [SEQ ID NO: 68]” here?
The value was 3.

KSCLPACVY [SEQ ID NO: 113] was tested. Which “# Alleles Bound” value did it give?
The value was 2.

How did the “# Alleles Bound” value turn out when “TIASVPAPRY (Influenza Virus) [SEQ ID NO: 140]” was run?
Its value is 2.

“VSFDQNLDY (Influenza Virus) [SEQ ID NO: 87]” was tested. Which “# Alleles Bound” value did it give?
The value was 2.

Which “# Alleles Bound” value does the source give for MLANIDLKY [SEQ ID NO: 210] here?
Its value is 3.

Which “# Alleles Bound” value does the source give for “YVDGFEPNGY (Influenza Virus) [SEQ ID NO: 167]” here?
The value was 2.

Which “# Alleles Bound” value does the source give for “IVAITDWSGY (Influenza Virus) [SEQ ID NO: 88]” here?
Its value is 1.

Which “# Alleles Bound” value does the source give for “RVSKMGVDEY (Influenza Virus) [SEQ ID NO: 267]” here?
The value was 1.

For “HIASMRRNY (Influenza Virus) [SEQ ID NO: 168]”, which “# Alleles Bound” value is on record?
Its value is 1.

How did the “# Alleles Bound” value turn out when “KMARLGKGY (Influenza Virus) [SEQ ID NO: 209]” was run?
The value was 1.

For GTEKLTITY [SEQ ID NO: 268], which “# Alleles Bound” value is on record?
The value was 1.

Which “# Alleles Bound” value does the source give for “STVHYPKVY (Influenza Virus) [SEQ ID NO: 265]” here?
Its value is 2.

With “ITQFESLKLY (Influenza Virus) [SEQ ID NO: 153]” as the sequence, how does the “# Alleles Bound” value read?
The value was 1.

How did the “# Alleles Bound” value turn out when VTRREVHIY [SEQ ID NO: 165] was run?
Its value is 1.

For “LTIGECPKY (Influenza Virus) [SEQ ID NO: 62]”, which “# Alleles Bound” value is on record?
Its value is 3.

“QWSQEPTMLY (Influenza Virus) [SEQ ID NO: 269]” was tested. Which “# Alleles Bound” value did it give?
The value was 2.

MLASIDLKY [SEQ ID NO: 211] was tested. Which “# Alleles Bound” value did it give?
The value was 4.

With “LVSDGGPNLY (Influenza Virus) [SEQ ID NO: 213]” as the sequence, how does the “# Alleles Bound” value read?
Its value is 3.

“KISPLMVAY (Influenza Virus) [SEQ ID NO: 266]” was tested. Which “# Alleles Bound” value did it give?
Its value is 2.
